Measured values: patent US7652015B2, “Kinase inhibitors” (Eli Lilly and Company, priority 2006, dated 2010)
Structures can show the parent of a compound that is named as a salt. Where two headings read alike, the source gives them in different places.

Tests used:
[1] = system: p-MAPKAPK2; assay: Inhibition of p-MAPKAPK2 in vitro, anisomycin-stimulated RAW 264.7 cells, ELISA; format: cell-based, murine; settings: Mus musculus, RAW264.7; RAW 264.7 cells, 2 hours compound, anisomicin 100 ug/ml 30 minutes; read-out: IC50, inhibition of p-MAPKAPK2 in vitro
Method: RAW 264.7 cells (a murine monocytic/macrophage line ATCC) are seeded at a density of 50,000 cells/well in 96-well plates with RPMI-1640 medium plus 10% fetal bovine serum (FBS) and allowed to settle and adhere to the bottom of the well for 48 hours. After reaching confluence, cells are treated for 2 hours with 10 serial dilutions of different compounds. A control compound is always included. After 2 hours, anisomicin (100 ug/ml) is added and cells are incubated for 30 minutes at 37° C. under a 5% CO2 atmosphere. Then, cells are fixed and treated with hydrogen peroxide in order to remove endogenous peroxidase. Finally, plates are blocked with FBS, washed, and an ELISA assay is carried out by using an antiphospho-MAPKAPK (Thr 334, Cell Signalling, Cat # 3041) antibody and ahP-Conjugated Secondary Antibody. This reaction is detected by using FEMTO (Pierce) which is an enhanced chemiluminiscent substrate ahP that results in rapid kinetic light output and high signal intensity.

[2] = system: p-MAPKAPK2; assay: as above; format: cell-based, murine; settings: Mus musculus, RAW264.7, in the presence of 100% serum

An IC50 [1] of 6.7 nM was found for `Cc1ccc(-n2nc(C(C)(C)C)cc2NC(=O)Nc2ccc(N3CCN(C(=O)c4c(Cl)cccc4Cl)CC3)nc2C)cc1` [Example 45, 1-(5-tert-Butyl-2-p-tolyl-2H-pyrazol-3-yl)-3-{6-[4-(2,6-dichloro-benzoyl)-piperazin-1-yl]-2-methyl-pyridin-3-yl}-urea methanesulfonate] in this work.
An IC50 [1] of 176 nM was found for `Cc1ccc(-n2nc(C(C)(C)C)cc2NC(=O)Nc2ccc(OC3CCN(C(=O)C4(C)CC4)CC3)nc2C)cc1` [Example 77, 1-(5-tert-Butyl-2-p-tolyl-2H-pyrazol-3-yl)-3-{2-methyl-6-[1-(1-methyl-cyclopropanecarbonyl)-piperidin-4-yloxy]-pyridin-3-yl}-urea] in this work.
An IC50 [1] of 16 nM was found for `Cc1ccc(-n2nc(C(C)(C)C)cc2NC(=O)Nc2ccc(OC3CCN(C(=O)c4ccc(Cl)s4)CC3)nc2)cc1` [Example 92, 1-(5-tert-Butyl-2-p-tolyl-2H-pyrazol-3-yl)-3-{6-[1-(5-chloro-thiophene-2-carbonyl)-piperidin-4-yloxy]-pyridin-3-yl}-urea] in this work.
An IC50 [2] of no more than 500 nM was found for `Cc1ccc(-n2nc(C(C)(C)C)cc2NC(=O)Nc2ccc(N3CCN(C(=O)c4ccccc4Cl)CC3)nc2C)cn1` [Example 111, 1-[5-tert-Butyl-2-(6-methyl-pyridin-3-yl)-2H-pyrazol-3-yl]-3-{6-[4-(2-chloro-benzoyl)-piperazin-1-yl]-2-methyl-pyridin-3-yl}-urea mesylate] in this work.
An IC50 [2] of no more than 500 nM was found for `Cc1ccc(-n2nc(C3(C(F)(F)F)CC3)cc2NC(=O)Nc2ccc(N3CCN(C(=O)c4sccc4C)CC3)nc2C)cn1` [Example 113, 1-{2-Methyl-6-[4-(3-methyl-thiophene-2-carbonyl)-piperazin-1-yl]-pyridin-3-yl}-3-[2-(6-methyl-pyridin-3-yl)-5-(1-trifluoromethyl-cyclopropyl)-2H-pyrazol-3-yl]-urea mesylate] in this work.
An IC50 [2] of no more than 500 nM was found for `Cc1ccc(-n2nc(C3(C(F)(F)F)CC3)cc2NC(=O)Nc2ccc(N3CCN(C(=O)c4ccccc4Cl)CC3)nc2C)cn1` [Example 114, 1-{6-[4-(2-Chloro-benzoyl)-piperazin-1-yl]-2-methyl-pyridin-3-yl}-3-[2-(6-methyl-pyridin-3-yl)-5-(1-trifluoromethyl-cyclopropyl)-2H-pyrazol-3-yl]-urea mesylate] in this work.
An IC50 [2] of no more than 500 nM was found for `Cc1ccc(-n2nc(C3(C(F)(F)F)CC3)cc2NC(=O)Nc2ccc(N3CCN(C(=O)c4ccccc4F)CC3)nc2C)cn1` [Example 115, 1-{6-[4-(2-Fluoro-benzoyl)-piperazin-1-yl]-2-methyl-pyridin-3-yl}-3-[2-(6-methyl-pyridin-3-yl)-5-(1-trifluoromethyl-cyclopropyl)-2H-pyrazol-3-yl]-urea mesylate] in this work.
An IC50 [2] of no more than 500 nM was found for `Cc1ccc(-n2nc(C(C)(CF)CF)cc2NC(=O)Nc2ccc(N3CCN(C(=O)c4ccccc4C)CC3)nc2C)cc1` [Example 119, 1-[5-(2-Fluoro-1-fluoromethyl-1-methyl-ethyl)-2-p-tolyl-2H-pyrazol-3-yl]-3-{2-methyl-6-[4-(2-methyl-benzoyl)-piperazin-1-yl]-pyridin-3-yl}-urea] in this work.
An IC50 [1] of 286 nM was found for `Cc1ccc(-n2nc(C(C)(C)C)cc2NC(=O)Nc2cnc(N3CCN(C(=O)C4(C)CC4)CC3)cc2C)cc1` [Example 128, 1-(5-tert-Butyl-2-p-tolyl-2H-pyrazol-3-yl)-3-{4-methyl-6-[4-(1-methyl-cyclopropanecarbonyl)-piperazin-1-yl]-pyridin-3-yl}-urea mesylate] in this work.
